In the assay the test system is CEM cells HIV-1 protection, formazan growth assay. Briefly: NCI AIDS Antiviral Assay. To be noted: for IC50: measured here: growth of uninfected CEM cells. Summed up:
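Soluble formazan readout of cell growth; CEM cells ± HIV-1; 5 drug concs. ≥50% protection → retest; ≥50% again = moderately active; reproducible 100% = confirmed active.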

Several values for one entry are separate records, joined by “and”; a condition that tells them apart may be missing. Equal values may be shown once. Activity calls are given as the source filed them.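 The calls were made as follows: active = compounds giving half or more protection of infected cells from virus-caused growth loss, again on retest; inactive = the rest.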 Where a SMILES comes first, the peptide text is derived from it. Bridges are numbered along the chain shown (N, C = ends). [ ]: non-standard residue; d: D form. The star is where a group is joined. Cbz = O=C(OCc1ccccc1)*; Dab = NCC[CH](N)C(=O)O; Bn = c1ccc(C*)cc1

With `O=C1CCC23/C=C/C(=O)NCCCCNCCCNC(=O)/C=C/c4ccc(c2c4)OC3C1` (stereo not drawn), the EC50 was > 148 µM and the 50% inhibitory concentration (IC50) was > 148 µM. On to `COC(=O)C(C)(Cc1ccc2c(c1)nnn2C(C)=O)NC(C)=O` (stereo not drawn), for which the EC50 is > 200 µM and the IC50 is > 200 µM. For the compound `CC(=O)NS(=O)(=O)c1ccc(NC(=O)COC(=O)c2cccc3c(=O)c4ccccc4[nH]c23)cc1`, the EC50 is > 363 µM and the half-maximal inhibitory concentration (IC50) is 245 µM.

Consider `CC(=O)O/N=C(/C)c1ccccc1O`, for which the EC50 was > 26.9 µM and the IC50 was > 26.9 µM. Take `Clc1cc2n[se]nc2cc1Cl`: the outcome was inactive. `O=[N+]([O-])c1ccc2nc3ccc([N+](=O)[O-])cn3c2c1`: the EC50 is > 200 µM and the IC50 was > 200 µM. With `O=C1N=CN=C2C=CC(Cl)=C(I)C12` (stereo not drawn), the EC50 is > 85.1 µM and the IC50 is > 85.1 µM. For `Cc1cc2c(cc1C(=O)CCC(=O)O)CC1(C2)Cc2cc(C)c(C(=O)CCC(=O)O)cc2C1`, the EC50 is > 200 µM and the IC50 was > 200 µM. For `CCC(C)C1NC(=O)C2CCCN2C(=O)C(Cc2ccc(O)cc2)NC(=O)C(CC(N)=O)NC(=O)C(CCC(N)=O)NC(=O)C(CO)NC(=O)C(C(C)C)NC(=O)C(N)CSSCC(C(=O)O)NC(=O)C(CCC(N)=O)NC(=O)C(C(C)C)NC1=O` (stereo not drawn) (H-CVSQNYPIVQC-OH; disulfide 1-11; configuration not given here), the EC50 is > 50.1 µM and the IC50 was > 50.1 µM.

Regarding `Oc1[nH]c2ccccc2c1N=NC(=S)Nc1ccccc1Cl`, the EC50 is > 200 µM and the IC50 stood at 1.51 µM. For the compound `O=C(/C=C/c1ccccc1)c1c2ccccc2cc2ccccc12`, the EC50 was > 8.91 µM and the IC50 was > 8.91 µM. As to `O=[N+]([O-])C(=C/c1cccc2ccccc12)/C(=C\c1cccc2ccccc12)[N+](=O)[O-]`, the EC50 was > 20 µM and the IC50 is 9.12 µM. For the compound `O=C(O)CCC(NC(=O)c1ccc(Nc2cnc3ccc(C(F)(F)F)cc3n2)cc1)C(=O)O` (stereo not drawn), the EC50 was > 200 µM and the 50% inhibitory concentration (IC50) is > 200 µM.

For `C/C(=N/NC(=S)Nc1ccc(Cl)cc1)c1cccc(/C(C)=N\NC(=S)Nc2ccc(Cl)cc2)n1`, the EC50 was > 200 µM and the IC50 turned out to be 6.76 µM. For `Cc1cn(CC2OC(CO)C(CO)O2)c(=O)[nH]c1=O` (stereo not drawn), in that order: > 457 µM and > 457 µM.

On to `CCCN(CCC)C1CCc2c(ccc3cc[nH]c23)C1` (stereo not drawn), for which the outcome was inactive. With `CCC12C=CCN3CC[C@]4(C(=C(C(=O)OC)[C@@H]1Nc1ncnc5c1ncn5C1OC(COC(C)=O)C(OC(C)=O)C1OC(C)=O)Nc1ccccc14)C32` (stereo partly drawn), the EC50 was > 13.8 µM and the 50% inhibitory concentration (IC50) was determined as 7.76 µM. Regarding `COc1cc(C(=O)N2CCOCC2)cc(OC)c1OC`, the EC50 is > 200 µM and the IC50 was > 200 µM. For `CCCCN(CC)C(=O)C(=O)C1C(=O)Nc2ccccc2S1=O` (stereo not drawn), the EC50 is > 204 µM and the IC50 is > 204 µM. Turning to `O=c1ccc2ccc(O)c(O)c2o1`, the EC50 is > 1410 µM and the IC50 was found to be 66.1 µM. For `COc1ccc(C(C#N)NNc2nc(C)cc(=O)[nH]2)cc1OC` (stereo not drawn), in that order: > 794 µM and 234 µM. `CC(C)CC1NC(=O)C(Cc2ccccc2)NC(=O)C(Cc2ccccc2)NC(=O)C(NC(=O)C(Cc2ccc(OCc3ccccc3)cc2)NC(=O)OCc2ccccc2)CCNC1=O` (stereo not drawn) (Cbz-Y(Bn)[Dab]FFL; lactam 2-C; configuration not given here): the EC50 is > 100 µM and the concentration for half-maximal inhibition (IC50) was > 100 µM. As to `CN(C)C(=O)OCOP(=O)(OCOC(=O)N(C)C)OCC1CCC(n2ccc(=O)[nH]c2=O)O1` (stereo not drawn), the EC50 was > 200 µM and the IC50 came to 93.3 µM. Regarding `COC(=O)NC1C(C)OC(OC2C/C=C(/C)C3C=CC4C(OC5CC(OC6CCC(OC7CC(O)C(OC8CCC(O)C(C)O8)C(C)O7)C(C)O6)C(OC(C)=O)C(C)O5)C(C)CC(C)C4C3(C)/C(O)=C3/C(=O)OC4(CC(C=O)=CC(O)C4/C=C\2C)C3=O)CC1(C)[N+](=O)[O-]` (stereo not drawn), the EC50 was > 186 µM and the IC50 turned out to be 0.191 µM. Consider `CN1CCN(Cc2nc3c(s2)CCc2sccc2-3)CC1`, for which the EC50 is > 200 µM and the IC50 was determined as 57.5 µM. The corresponding values for `CC1C2Cc3ccc(O)cc3C1(C)CCN2CCC(=O)c1ccccc1` (stereo not drawn) are > 200 µM and 27.5 µM. With `CSc1cc(SC)ncn1`, the EC50 was > 1450 µM and the IC50 came to 1020 µM.

Take `CC(C)(O)/C1=C/C=C/CCCCCCCCCC1`: the EC50 was > 200 µM and the IC50 came out at 34.7 µM. The corresponding values for `NC(CSCCSCCSCC(N)C(=O)O)C(=O)O` (stereo not drawn) are > 56.2 µM and > 56.2 µM. The corresponding values for `O=C(O)c1cc(O)cc(O)c1CNc1ccc(/C=C\c2ccc(NCc3c(O)cc(O)cc3C(=O)O)cc2S(=O)(=O)O)c(S(=O)(=O)O)c1` are > 87.1 µM and > 87.1 µM.

For the compound `C=CCCC12CCCC(=O)C1Sc1ccc3ccccc3c12` (stereo not drawn), the EC50 is > 12.3 µM and the IC50 is > 12.3 µM. For `C[C@]12CCC(=O)C[C@H]1CCC(O)[C@@H]2Br` (stereo partly drawn), the result was inactive.

`O=C(/C=C/c1ccccc1)c1ccc(Sc2ccccc2)cc1`: the EC50 was > 2 µM and the IC50 is 0.107 µM. As for `O=C(NC(=O)c1c(F)cccc1F)Nc1ccc(Br)cn1`, the EC50 was > 200 µM and the IC50 is > 200 µM. With `O=C1c2ccncc2C(=O)c2c1[nH]c1ccccc21`, the EC50 was > 200 µM and the half-maximal inhibitory concentration (IC50) is 3.16 µM. `Nc1c(-c2ccc(Cl)cc2Cl)[n+]([O-])c2ccccc2[n+]1[O-]`: the outcome was inactive. Consider `CN(C)c1ccc(/C=C2\C=Cc3ccccc32)c(F)c1`, for which the EC50 is > 14.1 µM and the half-maximal inhibitory concentration (IC50) is > 14.1 µM.

On to `N=c1c2ccccc2nc2oc3ccc(Cl)cc3n12`, for which the EC50 is > 200 µM and the IC50 was 102 µM. For `NC(=O)c1ccc(NCC2=CC(=O)C=CC2=O)cc1`, in that order: > 40.7 µM and 17.4 µM. In the case of `O=[P+](O)c1ccccn1`, the result was inactive.

Turning to `CCOC(=O)C#CC(=O)OCC`, the EC50 is > 200 µM and the IC50 came out at 15.1 µM. The corresponding values for `COc1cc2c(c3c1C(=O)[C@H](C)[C@@H](C)O3)C=CC(C)(C)O2` are > 200 µM and 50.1 µM. On to `CC(C)(O)/C=C\P(C)(=O)c1ccccc1` (stereo not drawn), for which the EC50 was > 200 µM and the IC50 was > 200 µM. With `CCOC(=O)c1cnc(-n2[nH]c3c(c2=O)CCCC3)[nH]c1=O`, the EC50 is > 151 µM and the concentration for half-maximal inhibition (IC50) was found to be 29.5 µM. On to `O=NN1C(c2ccccc2)CNC(=O)CC1c1ccccc1` (stereo not drawn), for which the outcome was inactive.

With `O=C1NN=C2CCCCCCC12Cl` (stereo not drawn), the EC50 is > 1050 µM and the IC50 was 158 µM.

In the case of `NC1=C(Cl)C(=O)c2ccccc2C1=O`, the EC50 was > 200 µM. As for `CC1=C(C#N)C2(C(=O)N(C)c3ccccc32)C(C#N)=C(C)N1c1ccccc1`, the EC50 was > 14.1 µM and the IC50 is > 14.1 µM.

Consider `CN(Cc1nc2c(N)nc(N)nc2[nH]c1=O)c1ccc(C(=O)NC(CCC(=O)O)C(=O)O)cc1` (stereo not drawn), for which the EC50 is > 200 µM; the IC50 was 10.7 µM and 8.13 µM. For `C[N+]1([O-])C2CCC1CC(OC(=O)C(CO)c1ccccc1)C2` (stereo not drawn), the EC50 was > 200 µM and the IC50 was > 200 µM.
